# What was measured:
# [1] = target: T1, rat CYP17 (rat testicular microsomes) (Rattus norvegicus, UniProt P11715); experiment: CYP17 inhibition assay in rat testicular microsomes; format: biochemical
# T1 construct: Rat testis tissue was collected and disrupted with 30 strokes of a glass homogenizer; from tissue; host or cells: rat testis (microsomes)
# T1 sequence (P11715 1-507): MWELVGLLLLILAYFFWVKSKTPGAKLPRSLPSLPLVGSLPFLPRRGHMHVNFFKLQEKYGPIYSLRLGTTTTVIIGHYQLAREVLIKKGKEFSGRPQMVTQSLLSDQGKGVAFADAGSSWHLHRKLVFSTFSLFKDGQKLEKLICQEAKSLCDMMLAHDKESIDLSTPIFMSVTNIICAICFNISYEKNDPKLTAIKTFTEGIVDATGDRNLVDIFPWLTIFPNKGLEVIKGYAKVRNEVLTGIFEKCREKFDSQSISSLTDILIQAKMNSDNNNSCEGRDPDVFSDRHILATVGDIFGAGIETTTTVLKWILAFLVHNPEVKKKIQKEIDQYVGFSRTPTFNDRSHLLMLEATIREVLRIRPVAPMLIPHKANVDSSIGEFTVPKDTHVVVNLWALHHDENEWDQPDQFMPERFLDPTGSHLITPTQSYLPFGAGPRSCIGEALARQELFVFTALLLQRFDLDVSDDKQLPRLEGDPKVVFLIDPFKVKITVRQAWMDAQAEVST
# Outline: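 Rat testicular microsomes (150–160 μg) or yeast microsomes expressing human CYP17 (1.7 pmol) react with ³H-17α-hydroxypregnenolone (1 μCi/reaction) and 325 μM NADPH in potassium phosphate buffer, pH 7.4. Compound is pre-incubated with substrate for 15 min, then the reaction runs 60 min at 37 °C. After chloroform extraction and charcoal treatment, aqueous radioactivity is measured by scintillation counting.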
# human CYP17 = target: T2, human CYP17 (Homo sapiens, UniProt P05093); experiment: CYP17 inhibition assay in yeast microsomes overexpressing human CYP17; format: biochemical; conditions: yeast microsomes expressing human CYP17
# T2 construct: purchased Premas Biotech, India; host or cells: yeast (microsomes)
# T2 sequence (P05093 1-508): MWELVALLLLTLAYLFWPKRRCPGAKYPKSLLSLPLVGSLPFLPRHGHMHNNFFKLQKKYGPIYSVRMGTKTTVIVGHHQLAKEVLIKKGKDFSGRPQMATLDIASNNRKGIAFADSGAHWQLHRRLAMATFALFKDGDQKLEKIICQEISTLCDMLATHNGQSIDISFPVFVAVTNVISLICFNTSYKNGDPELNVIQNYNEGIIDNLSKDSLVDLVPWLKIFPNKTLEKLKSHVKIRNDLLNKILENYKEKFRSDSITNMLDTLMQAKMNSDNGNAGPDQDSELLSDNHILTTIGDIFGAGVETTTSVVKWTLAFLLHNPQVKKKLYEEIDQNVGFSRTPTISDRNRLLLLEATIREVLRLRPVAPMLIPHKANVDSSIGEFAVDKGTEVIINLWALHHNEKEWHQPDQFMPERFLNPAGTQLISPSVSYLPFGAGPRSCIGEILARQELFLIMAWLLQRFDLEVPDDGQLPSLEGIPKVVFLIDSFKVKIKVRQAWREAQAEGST
# Protocol: CYP17 Inhibition Assay in Rat Testicular Microsomes (Rat CYP17) or Yeast Microsome Overexpressing Human CYP17
# 1. NADPH (Sigma): A working stock was prepared by adding 25 μL of 6.5 mM NADPH in each tube. The final concentration of NADPH used in the assay was 325 μM.
# 2. Potassium Phosphate Buffer: One molar (1M) solutions of K2HPO4 and KH2PO4 were prepared. Eight mL of the 1 M KH2PO4 and 1.98 mL of the 1 M K2HPO4 were combined and the pH was adjusted to 7.4.
# 3. ^3H3-17α-hydroxypregnenolone (American Radiolabeled Chemicals, Inc., stock 1 μCi/μL): A 1:1 dilution of ^3H3-17α-hydroxypregnenolone in ethanol was prepared by combining 100 μL ^3H3-17α-hydroxypregnenolone+100 μL ethanol for one complete 96 well plate. For the reaction, 2 μL of the diluted ^3H3-17α-hydroxypregnenolone was added in each tube, i.e., 1 μCi/reaction. 4. Microsome Isolation Buffer: The microsome isolation buffer was prepared by combining 250 mM Sucrose, 5 mM EDTA, 10 mM Tris HCl, 4 mM DTT, and adjusting to pH 7.4. 5. TEG Buffer: The TEG buffer was prepared by combining 50 mM Tris HCl, 1 mM EDTA, and 20% Glycerol. 6. Rat Testicular Microsomes: Rat testis tissue was collected and disrupted with 30 strokes of a glass homogenizer on ice with 250 μL of microsome isolation buffer, followed by centrifugation at 10,000 g for 10 minutes at 4° C. The supernatant was collected and centrifuged at 100,000 g for 45 minutes at 4° C. The pellet was dissolved in TEG Buffer and the protein was quantified. The homogenized microsome samples were then frozen at −80° C. • 7. Yeast Microsomes which overexpress the human CYP17 enzyme were obtained from Premas Biotech, India.
# Potassium phosphate buffer (470 μL) was prepared as described above and was added to each well of a deep well plate. The test compound was diluted using a TECAN liquid handler and 5 μL of diluted compound was transferred to each well (96 deep well/1 mL). A solution (25 μL) of 6.5 mM NADPH was added (final concentration of 325 μM in the assay). ^3H3-17α-hydroxypregnenolone (2 μL of the working stock) was added to each tube. The plates were then pre-incubated for 15 minutes at 37° C. Following the pre-incubation, either 5 μL rat testicular microsomes (150-160 μg) or 5 μL of yeast microsomes expressing human CYP17 (1.7 pmol), was added. Incubation was at 37° C. for 60 minutes in the presence of oxygen. The plates were then placed in ice and chloroform (500 μL) was added, mixed well and incubated at 4° C. for 20 minutes. The plates were then centrifuged at 1000 rpm for 15 minutes at 4° C.
# A portion (300 μL) of the aqueous solution was collected and mixed with a 5% aqueous suspension of activated charcoal (300 μL). The plates were then incubated at 4° C. for 30 minutes, after which the plates were centrifuged at 1000 rpm for 15 minutes at 4° C. From this, 125 μL of the aqueous solution was collected and plated into a 96 well plate. Microscint™ 40 [125 μL, Perkin-Elmer; containing a mixture of a polymer based on alkylphenolethoxylate (20-40%), diethanolamine-phosphoric acid ester ammonium salt (10-20%), sodium dioctyl sulphosuccinate (2.5-10%), triethyl phosphate (2.5-10%), 3,6-dimethyl-4-octyne-3,6-diol (≦2.5%), a polymer based on nonylphenolethoxylate (≦2.5%), diisopropyl naphthalene isomers (40-60%), 2,5-diphenyloxazole (≦2.5%), and 9,10-dimethylanthracene] was added and mixed well. After 30 minutes of incubation, the samples were analyzed with a MicroBeta® Trilux microplate liquid scintillation counter and luminometer (Perkin-Elmer).
SMILES,IC50 [1] [nM],IC50 (human CYP17) [nM]
"CC(O)(c1ccncc1)c1ncc(-c2ccc(F)cc2)s1 (stereo not shown) [Example 14, 1-(5-(4-Fluorophenyl)thiazol-2-yl)-1-(pyridin-4-yl)ethanol]",< 50,–
"Cn1cc(-c2ccc(C(C)(O)c3ccncc3)s2)ccc1=O (stereo not shown) [Example 15, 5-(5-(1-Hydroxy-1-(pyridin-4-yl)ethyl)thiophen-2-yl)-1-methyl-pyridin-2(1H)-one]",< 50,201 to 10000
"CC(O)(c1ccncc1)c1cnc(-c2ccc(F)cc2)s1 (single isomer, unassigned) [Example 8, 1-(2-(4-fluorophenyl)thiazol-5-yl)-1-(pyridin-4-yl)ethanol]",< 50,201 to 10000
"CC(O)(c1ccncc1)c1cnc(-c2ccc(F)cc2)s1 (single isomer, unassigned) [Example 9, 1-(2-(4-fluorophenyl)thiazol-5-yl)-1-(pyridin-4-yl)ethanol]",< 50,50 to 200
"CCC(O)(c1ccncc1)c1cnc(-c2ccc(F)cc2)s1 (stereo not shown) [Example 4, 1-(2-(4-fluorophenyl)-thiazol-5-yl)-1-(pyridin-4-yl)propan-1-ol]",< 50,–
"CC(O)(c1ccncc1)c1cnc(-c2ccc(F)cc2)s1 (racemic) [Example 7, 1-(2-(4-Fluorophenyl)thiazol-5-yl)-1-(pyridin-4-yl)ethanol]",< 50,50 to 200
"COc1ccc(-c2ccc(C(C)(O)c3ccncc3)nc2)cc1 (single isomer, unassigned) [Example 3, 1-(5-(4-methoxyphenyl)-pyridin-2-yl)-1-(pyridin-4-yl)ethanol]",50 to 200,–
"COc1ccc(-c2ccc(C(C)(O)c3ccncc3)nc2)cc1 (single isomer, unassigned) [Example 2, 1-(5-(4-methoxyphenyl)-pyridin-2-yl)-1-(pyridin-4-yl)ethanol]",< 50,–
"CC(O)(c1ccncc1)c1nc(-c2ccc(F)cc2)no1 (stereo not shown) [Example 34, 1-(3-(4-Fluorophenyl)-1,2,4-oxadiazol-5-yl)-1-(pyridin-4-yl)ethanol]",< 50,–
"CC(O)(c1ccncc1)c1nc(-c2ccc(F)cc2)no1 (single isomer, unassigned; (+)) [Example 36, (+)-1-(3-(4-fluoro-phenyl)-1,2,4-oxadiazol-5-yl)-1-(pyridin-4-yl)ethanol]",< 50,< 50
"Cn1cc(-c2ccc(C(C)(O)c3ccncc3)s2)ccc1=O (single isomer, unassigned; (-)) [Example 17, (−)-5-(5-(1-hydroxy-1-(pyridin-4-yl)ethyl)thiophen-2-yl)-1-methylpyridin-2(1H)-one]",< 50,50 to 200
"COc1ccc(-c2ccc(C(C)(O)c3ccncc3)nc2)cc1 (racemic) [Example 1, 1-(5-(4-Methoxyphenyl)pyridin-2-yl)-1-(pyridin-4-yl)ethanol]",< 50,201 to 10000

# From US8809372B2, “Pyridine derivatives” (Endo Pharmaceuticals, Inc., priority 2011, dated 2014)
